Assay results published in ChEMBL document CHEMBL3885861, “Open TG-GATES”.

Species on record: Rattus norvegicus
Test: Open TG-GATES - Regimen: Single
Assay type: toxicity, organism-based, Sprague-Dawley
Parameters: regimen Single, gender Male, age 6 weeks
Settings: in vivo, po, 60 mg/kg, route gavage, dose level High; for APTT / Bas / Eos / Fbg / Hb / Ht / Lym / MCH / MCHC / MCV / Mono / Neu / PT / Plat / RBC / WBC: tissue Blood; for KIDNEY_L / KIDNEY_R / KIDNEY_TOTAL: tissue Kidney; for LIVER: tissue Liver; for ALT / AST / BUN / CRE / Cl / DBIL / GLC / IP / LDH / Na / RALB / TBIL / TC / TG / TP / gamma-GTP: tissue Plasma

Structure (SMILES): CC/C(=C(\c1ccccc1)c1ccc(OCCN(C)C)cc1)c1ccccc1 [TAMOXIFEN]
- TERMINAL_BW (3 h): 193.1 g
- APTT (3 h): 16.1 s
- Bas (3 h): 0%
- Eos (3 h): 1%
- Fbg (3 h): 259.8 mg/dL
- Hb (3 h): 13.1 g/dL
- Ht (3 h): 39.5%
- Lym (3 h): 77.6%
- MCH (3 h): 21.8 pg
- MCHC (3 h): 33.3%
- MCV (3 h): 65.7 fL
- Mono (3 h): 3.8%
- Neu (3 h): 17.4%
- PT (3 h): 11.9 s
- Plat (3 h): 112.1 x10_4/uL
- RBC (3 h): 601.4 x10_4/ul
- WBC (3 h): 80.5 x10_2/uL
- KIDNEY_L (3 h): 0.9 g
- KIDNEY_R (3 h): 0.9 g
- KIDNEY_TOTAL (3 h): 1.7 g
- LIVER (3 h): 8.3 g
- ALT (3 h): 50.8 IU/L
- AST (3 h): 82.6 IU/L
- BUN (3 h): 9.4 mg/dL
- CRE (3 h): 0.2 mg/dL
- Cl (3 h): 106.8 meq/L
- DBIL (3 h): 0.026 mg/dL
- GLC (3 h): 169.2 mg/dL
- IP (3 h): 9.5 mg/dL
- LDH (3 h): 77 IU/L
- Na (3 h): 140.8 meq/L
- RALB (3 h): 2.6 g/dL
- TBIL (3 h): 0.05 mg/dL
- TC (3 h): 80 mg/dL
- TG (3 h): 106.2 mg/dL
- TP (3 h): 5.6 g/dL
- gamma-GTP (3 h): 1 IU/L
- TERMINAL_BW (6 h): 193.6 g
- Bas (6 h): 0%
- Eos (6 h): 0.8%
- Fbg (6 h): 252.6 mg/dL
- Hb (6 h): 12.8 g/dL
- Lym (6 h): 78.8%
- MCH (6 h): 21.5 pg
- MCHC (6 h): 33.4%
- MCV (6 h): 64.3 fL
- Mono (6 h): 2.6%
- Neu (6 h): 17.6%
- PT (6 h): 12.2 s
- Plat (6 h): 112.7 x10_4/uL
- RBC (6 h): 595.6 x10_4/ul
- WBC (6 h): 59.9 x10_2/uL
- KIDNEY_L (6 h): 0.8 g
- KIDNEY_R (6 h): 0.9 g
- KIDNEY_TOTAL (6 h): 1.7 g
- LIVER (6 h): 7.5 g
- ALT (6 h): 38.8 IU/L
- AST (6 h): 74.2 IU/L
- BUN (6 h): 7.6 mg/dL
- CRE (6 h): 0.2 mg/dL
- Cl (6 h): 109.4 meq/L
- DBIL (6 h): 0.012 mg/dL
- GLC (6 h): 175 mg/dL
- IP (6 h): 10.4 mg/dL
- LDH (6 h): 54.4 IU/L
- Na (6 h): 141.8 meq/L
- RALB (6 h): 2.5 g/dL
- TBIL (6 h): 0.042 mg/dL
- TC (6 h): 76.4 mg/dL
- TG (6 h): 56.2 mg/dL
- TP (6 h): 5.2 g/dL
- gamma-GTP (6 h): 1.2 IU/L
- TERMINAL_BW (9 h): 193.9 g
- APTT (9 h): 14.5 s
- Bas (9 h): 0%
- Eos (9 h): 0.8%
- Fbg (9 h): 274.6 mg/dL
- Hb (9 h): 13 g/dL
- Ht (9 h): 38.6%
- Lym (9 h): 79%
- MCH (9 h): 22.2 pg
- MCHC (9 h): 33.7%
- MCV (9 h): 65.8 fL
- Mono (9 h): 2.4%
- Neu (9 h): 17.4%
- PT (9 h): 12.1 s
- Plat (9 h): 121.3 x10_4/uL
- RBC (9 h): 586.6 x10_4/ul
- WBC (9 h): 71.5 x10_2/uL
- KIDNEY_L (9 h): 0.8 g
- KIDNEY_R (9 h): 0.8 g
- KIDNEY_TOTAL (9 h): 1.7 g
- LIVER (9 h): 7.3 g
- ALT (9 h): 43.8 IU/L
- AST (9 h): 75.2 IU/L
- BUN (9 h): 8.4 mg/dL
- CRE (9 h): 0.2 mg/dL
- Cl (9 h): 107 meq/L
- DBIL (9 h): 0.01 mg/dL
- GLC (9 h): 184.6 mg/dL
- IP (9 h): 11.2 mg/dL
- LDH (9 h): 59.8 IU/L
- Na (9 h): 141.6 meq/L
- RALB (9 h): 2.5 g/dL
- TBIL (9 h): 0.044 mg/dL
- TC (9 h): 79.4 mg/dL
- TG (9 h): 39 mg/dL
- TP (9 h): 5.3 g/dL
- gamma-GTP (9 h): 1.4 IU/L
- TERMINAL_BW (24 h): 193.1 g
- APTT (24 h): 15.8 s
- Bas (24 h): 0.2%
- Eos (24 h): 1.2%
- Fbg (24 h): 260.2 mg/dL
- Hb (24 h): 13.2 g/dL
- Ht (24 h): 39.4%
- Lym (24 h): 80.8%
- MCH (24 h): 21.5 pg
- MCHC (24 h): 33.4%
- MCV (24 h): 64.5 fL
- Mono (24 h): 3.2%
- Neu (24 h): 14.2%
- PT (24 h): 12.9 s
- Plat (24 h): 113.6 x10_4/uL
- RBC (24 h): 611.2 x10_4/ul
- WBC (24 h): 91.3 x10_2/uL
- KIDNEY_L (24 h): 0.9 g
- KIDNEY_R (24 h): 0.9 g
- KIDNEY_TOTAL (24 h): 1.7 g
- LIVER (24 h): 8.4 g
- ALT (24 h): 45 IU/L
- AST (24 h): 71.6 IU/L
- BUN (24 h): 12.8 mg/dL
- CRE (24 h): 0.2 mg/dL
- Cl (24 h): 109.4 meq/L
- DBIL (24 h): 0.018 mg/dL
- GLC (24 h): 185.8 mg/dL
- IP (24 h): 8.3 mg/dL
- LDH (24 h): 54 IU/L
- Na (24 h): 143.2 meq/L
- RALB (24 h): 2.6 g/dL
- TBIL (24 h): 0.044 mg/dL
- TC (24 h): 51.4 mg/dL
- TG (24 h): 81 mg/dL
- TP (24 h): 5.4 g/dL
- gamma-GTP (24 h): 1 IU/L
